The values that follow come from ChEMBL document CHEMBL3817804 (Medchemcomm, 2016).

The target of data set [1] is T1, Solute carrier family 15 member 1 (Oryctolagus cuniculus, UniProt P36836).
T1 sequence (P36836 whole entry): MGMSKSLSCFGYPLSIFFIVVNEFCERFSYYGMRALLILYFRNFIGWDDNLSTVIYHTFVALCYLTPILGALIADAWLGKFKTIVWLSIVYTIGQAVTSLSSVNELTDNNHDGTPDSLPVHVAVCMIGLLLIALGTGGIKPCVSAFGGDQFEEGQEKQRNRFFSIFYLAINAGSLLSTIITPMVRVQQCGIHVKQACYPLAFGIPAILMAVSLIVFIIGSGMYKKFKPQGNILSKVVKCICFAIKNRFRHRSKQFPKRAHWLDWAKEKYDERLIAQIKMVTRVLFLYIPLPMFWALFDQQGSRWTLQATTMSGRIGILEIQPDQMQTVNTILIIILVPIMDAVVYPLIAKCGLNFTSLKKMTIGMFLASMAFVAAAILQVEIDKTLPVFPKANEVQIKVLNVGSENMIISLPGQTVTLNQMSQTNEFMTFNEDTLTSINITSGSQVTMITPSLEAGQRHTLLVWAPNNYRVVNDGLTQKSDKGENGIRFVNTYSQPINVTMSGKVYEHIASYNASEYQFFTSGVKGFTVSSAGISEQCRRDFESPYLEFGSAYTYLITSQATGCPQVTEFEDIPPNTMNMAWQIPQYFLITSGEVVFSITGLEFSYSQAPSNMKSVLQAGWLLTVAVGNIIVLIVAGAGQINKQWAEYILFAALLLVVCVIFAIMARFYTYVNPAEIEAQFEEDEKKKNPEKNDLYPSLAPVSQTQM
Description: Inhibition of [3H]-D-Phe-L-Gln uptake at rabbit PepT1 expressed in Xenopus laevis oocytes at pH 5.5 measured after 1 hr by scintillation counting method. Type of data set: cell-based.

In data set [2] the target is T1, Solute carrier family 15 member 1. The data set can be described thus: Substrate activity at rabbit PepT1 expressed in Xenopus laevis oocytes assessed as drug transportation across membrane under holding potential at -30 mV at 2 mM by two electrode voltage-clamp method. Type of data set: ADME, cell-based. The note with it: 2000 µM.

The structures appear in SMILES notation.

By Ki is commonly meant the dissociation constant of the complex between target and ligand, obtained from inhibition or displacement. Compound `C/C=C/C[C@H](C)[C@@H](OC(=O)CNC(=O)C[C@@H](NC(=S)[C@H](C)N)C(=O)O)[C@@H]1C(=O)N[C@@H](CC)C(=O)N(C)CC(=O)N(C)[C@H](CC(C)C)C(=O)N[C@H](C(C)C)C(=O)N(C)[C@H](CC(C)C)C(=O)N[C@H](C)C(=O)N[C@H](C)C(=O)N(C)[C@H](CC(C)C)C(=O)N(C)[C@H](CC(C)C)C(=O)N(C)[C@H](C(C)C)C(=O)N1C` registered a Ki in data set [1] of 1110 µM. Further, the Activity in data set [2] stood at 322 nA.
